The source of these data is US8008303B2, “Biphenyl derivatives and their use in treating hepatitis C” (AstraZeneca AB, priority 2005, dated 2011).

Data set [1] relates to HCV replicon cells Huh 9B. It is filed as cell-based.
The test system of data set [2] is HCV replicon cells Huh 9B. As to the kind of experiment: HCV replicon assay (luciferase readout). It is filed as cell-based. The method in brief: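 Compounds, made up at twice final strength (final DMSO 1%), were added to subgenomic replicon cells one day after plating. Incubation then ran 72 h at 37 °C, 5% CO2, without G418. Replication was quantified as firefly luciferase luminescence in lysed cells, with cytotoxicity assessed on a duplicate clear plate.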
(In general: In antiviral work, replicon cells carry a viral genome segment that copies itself.)

Setting [3] is: concentration reducing total cell area by 50% relative to DMSO controls, methylene blue, absorbance 620 nm, 72 h incubation.
Where [4] appears, read: Hepatitis C virus, 72 h, concentration reducing replicon level (luciferase activity) by 50% vs untreated cell control, 72 h incubation.

Structures are written as SMILES. Read-outs that look alike come from different tables or passages of the source.

As a reminder, the IC50 is the concentration that gives 50% inhibition. A high value points to lower potency.

Turning to `Cc1ccc(C(=O)NC2CCCC2)cc1-c1ccc(C(=O)Nc2ccc(CN3CCS(=O)(=O)CC3)cc2)cc1` [Example 148, 6-Methyl-biphenyl-3,4′-dicarboxylic acid 3-cyclopentylamide 4′-{[4-(1,1-dioxo-1lambda*6*-thiomorpholin-4-ylmethyl)-phenyl]-amide}], the TD50 result in data set [1] is “* (key: * < 50 μM; ** > 50 μM)”. In data set [2], this molecule came in with an IC50 of 1 to 5 µM.

With `Cc1ccc(-c2noc(C3CC3)n2)cc1-c1ccc(C(=O)Nc2ccc(CN3CCS(=O)(=O)CC3)cc2)cc1` [Example 205, 5′-(5-Cyclopropyl-[1,2,4]oxadiazol-3-yl)-2′-methyl-biphenyl-4-carboxylic acid [4-(1,1-dioxo-1lambda*6*-thiomorpholin-4-ylmethyl)-phenyl]-amide], the TD50 result in data set [1] (setting [3]) is on record as “* (* < 50 μM)”. The molecule further gave an IC50 in data set [2] (setting [4]) greater than 5 µM.

For the molecule `Cc1ccc(NC(=O)C2(C(F)(F)F)CC2)cc1-c1ccc(C(=O)Nc2ccc(CN3CCS(=O)(=O)CC3)cc2)cc1` [Example 173, 2′-Methyl-5′-[(1-trifluoromethyl-cyclopropanecarbonyl)-amino]-biphenyl-4-carboxylic acid [4-(1,1-dioxo-1lambda*6*-thiomorpholin-4-ylmethyl)-phenyl]-amide], in data set [1] (setting [3]), the TD50 result was “* (* < 50 μM)”. Also, in data set [2] (setting [4]), the IC50 fell in the range of 1 to 5 µM.

Turning to `COc1ccc(NC(=O)c2ccc(-c3cc(C(=O)Nc4ccc(N5CCOCC5)cc4)ccc3C)cc2)cc1OC` [Example 34, 6-Methyl-biphenyl-3,4′-dicarboxylic acid 4′-[(3,4-dimethoxy-phenyl)-amide] 3-[(4-morpholin-4-yl-phenyl)-amide]], the TD50 entry in data set [1] is “** (key: * < 50 μM; ** > 50 μM)”. For the same molecule, in data set [2], the IC50 lay in the range of 1 to 5 µM.

In the case of `Cc1ccc(NC(=O)C2(C)CC2)cc1-c1ccc(C(=O)Nc2ccc(CN3CCS(=O)(=O)CC3)cc2)cc1` [Example 175, 2′-Methyl-5′-[(1-methyl-cyclopropanecarbonyl)-amino]-biphenyl-4-carboxylic acid [4-(1,1-dioxo-1lambda*6*-thiomorpholin-4-ylmethyl)-phenyl]-amide], in data set [1] (setting [3]), the TD50 entry was “* (* < 50 μM)”. In data set [2] (setting [4]), this molecule had an IC50 of less than 1 µM.

`O=C(Nc1ccc(CN2CCS(=O)(=O)CC2)cc1)c1ccc(-c2cc(NC(=O)C3CC3)ccc2Cl)cc1` [Example 194, 2′-Chloro-5′-(cyclopropanecarbonyl-amino)-biphenyl-4-carboxylic acid [4-(1,1-dioxo-1lambda*6*-thiomorpholin-4-ylmethyl)-phenyl]-amide]: the TD50 entry in data set [1] (setting [3]) is recorded as “* (* < 50 μM)”. The molecule further had a half-maximal inhibitory concentration (IC50) in data set [2] (setting [4]) of less than 1 µM.

In the case of `Cc1ccc(-c2noc(C(C)C)n2)cc1-c1ccc(C(=O)Nc2ccc(CN3CCS(=O)(=O)CC3)cc2)cc1` [Example 207, 5′-(5-Isopropyl-[1,2,4]oxadiazol-3-yl)-2′-methyl-biphenyl-4-carboxylic acid [4-(1,1-dioxo-1lambda*6*-thiomorpholin-4-ylmethyl)-phenyl]-amide], the TD50 entry in data set [1] (setting [3]) is reported as “* (* < 50 μM)”. In addition, the IC50 in data set [2] (setting [4]) is greater than 5 µM.

With `Cc1ccc(C(=O)Nc2ccc(N3CCOCC3)cc2)cc1-c1ccc(C(=O)Nc2cccc(CN3CCSCC3)c2)cc1` [Example 69, 6-Methyl-biphenyl-3,4′-dicarboxylic acid 3-[(4-morpholin-4-yl-phenyl)-amide] 4′-[(3-thiomorpholin-4-ylmethyl-phenyl)-amide]], in data set [1], the TD50 entry was “* (key: * < 50 μM; ** > 50 μM)”. The same molecule displayed an IC50 in data set [2] of less than 1 µM.

`Cc1ccc(NC(=O)C2(C#N)CC2)cc1-c1ccc(C(=O)Nc2ccc(CN3CCS(=O)(=O)CC3)cc2)cc1` [Example 174, 5′-[(1-Cyano-cyclopropanecarbonyl)-amino]-2′-methyl-biphenyl-4-carboxylic acid [4-(1,1-dioxo-1lambda*6*-thiomorpholin-4-ylmethyl)-phenyl]-amide]: in data set [1] (setting [3]), the TD50 entry was “* (* < 50 μM)”. The IC50 in data set [2] (setting [4]) fell in the range of 1 to 5 µM.

`Cc1ccc(NC(=O)c2ccco2)cc1-c1ccc(C(=O)NCc2cccc(Cl)c2)cc1` [Example 209, Furan-2-carboxylic acid [4′-(3-chloro-benzylcarbamoyl)-6-methyl-biphenyl-3-yl]-amide]: the TD50 entry in data set [1] (setting [3]) is “** (** > 50 μM)”. The molecule also returned an IC50 in data set [2] (setting [4]) of 1 to 5 µM.

Consider `Cc1ccc(C(=O)Nc2ccc(N3CCOCC3)cc2)cc1-c1ccc(C(=O)Nc2ccc(Cl)c(Cl)c2)cc1` [Example 22, 6-Methyl-biphenyl-3,4′-dicarboxylic acid 4′-[(3,4-dichloro-phenyl)-amide] 3-[(4-morpholin-4-yl-phenyl)-amide]], for which the TD50 result in data set [1] is “** (key: * < 50 μM; ** > 50 μM)”. The IC50 in data set [2] lay within 1 to 5 µM.

For `COc1ccc(S(=O)(=O)Nc2ccc(N3CCOCC3)cc2)cc1-c1ccc(C(=O)Nc2ccc(CN3CCN(S(=O)(=O)C(C)C)CC3)cc2)cc1` [Example 246, 2′-Methoxy-5′-(4-morpholin-4-yl-phenylsulfamoyl)-biphenyl-4-carboxylic acid [4-(4-propane-2-sulfonyl-piperazin-1-ylmethyl)-phenyl]-amide], the TD50 result in data set [1] (setting [3]) is recorded as “* (* < 50 μM)”. Also, the IC50 in data set [2] (setting [4]) was less than 1 µM.

Turning to `Cc1ccc(NC(=O)c2ccc(N3CCOCC3)cc2)cc1-c1ccc(C(=O)NCc2cccc(Br)c2)cc1` [Example 88, 2′-Methyl-5′-(4-morpholin-4-yl-benzoylamino)-biphenyl-4-carboxylic acid 3-bromo-benzylamide], in data set [1] (setting [3]), the TD50 result is on record as “** (** > 50 μM)”. The molecule also gave an IC50 in data set [2] (setting [4]) of 1 to 5 µM.

`Cc1ccc(C(=O)Nc2ccc(N3CCOCC3)cc2)cc1-c1ccc(C(=O)Nc2ccc(Br)cc2)cc1` [Example 7, 6-Methyl-biphenyl-3,4′-dicarboxylic acid 4′-[(4-bromo-phenyl)-amide] 3-[(4-morpholin-4-yl-phenyl)-amide]]: in data set [1], the TD50 result was “* (key: * < 50 μM; ** > 50 μM)”. For the same molecule, the IC50 in data set [2] fell in the range of 1 to 5 µM.

As for `Cc1ccc(NC(=O)C2CC2)cc1-c1ccc(C(=O)Nc2ccc(CN3CCCC3)cc2)cc1` [Example 230, 5′-(Cyclopropanecarbonyl-amino)-2′-methyl-biphenyl-4-carboxylic acid (4-pyrrolidin-1-ylmethyl-phenyl)-amide], the TD50 result in data set [1] (setting [3]) was “* (* < 50 μM)”. This molecule gave a 50% inhibitory concentration (IC50) in data set [2] (setting [4]) of 1 to 5 µM.

Turning to `Cc1ccc(CNc2cccc(Br)c2)cc1-c1ccc(C(=O)Nc2ccc(CN3CCS(=O)(=O)CC3)cc2)cc1` [Example 198, 5′-[(3-Bromo-phenylamino)-methyl]-2′-methyl-biphenyl-4-carboxylic acid [4-(1,1-dioxo-1lambda*6*-thiomorpholin-4-ylmethyl)-phenyl]-amide], the TD50 entry in data set [1] (setting [3]) is “* (* < 50 μM)”. The IC50 in data set [2] (setting [4]) lay within 1 to 5 µM.

In the case of `Cc1ccc(C(=O)Nc2ccc(N3CCOCC3)cc2)cc1-c1ccc(C(=O)NCc2ccsc2)cc1` [Example 40, 6-Methyl-biphenyl-3,4′-dicarboxylic acid 3-[(4-morpholin-4-yl-phenyl)-amide] 4′-[(thiophen-3-ylmethyl)-amide]], the TD50 result in data set [1] is “** (key: * < 50 μM; ** > 50 μM)”. This molecule also had an IC50 in data set [2] of 1 to 5 µM.

In the case of `O=C(Nc1ccc(CN2CCS(=O)(=O)CC2)cc1)c1ccc(-c2cccc(NC(=O)C3CCC3)c2)cc1` [Example 169, 3′-(Cyclobutanecarbonyl-amino)-biphenyl-4-carboxylic acid [4-(1,1-dioxo-1lambda*6*-thiomorpholin-4-ylmethyl)-phenyl]-amide], the TD50 entry in data set [1] (setting [3]) is “* (* < 50 μM)”. In addition, the IC50 in data set [2] (setting [4]) is less than 1 µM.
